Results: patent US20090227606A1, “Methods for Preventing or Treating Acute and Chronic Pain” (priority 2006, published 2009)
Entries after “also recorded” stand apart in the source; their conditions may differ.

What was measured:
[1] = test system: GLAST; experiment: DsRed-GLAST-positive puncta in mouse spinal cord dorsal horn; assay type: in vivo
Experimental: With these in vivo data collected, further experiments were performed in the transgenic mice to more clearly define the effects of propentofylline treatment on GLT-1 and GLAST in the spinal cord. As discussed above, following in vivo testing, mice were transcardially perfused and tissue was fixed with paraformaldehyde. Lumbar spinal cord sections were identified and post-fixed in paraformaldehyde. After one week in sucrose to prevent freeze fracture, spinal cord segments were frozen in dry ice, mounted and prepared with cryostat sectioning. Sections were then subjected to immunohistochemical analysis. […] In order to quantitate the relative number of eGFP (marker for GLT-1) or DsRed (marker for GLAST) puncta in each spinal cord dorsal horn, images using a fluorescence microscope were taken with a Q-Fire cooled camera (397 ms exposure). […] An observer blind to the treatment groups was used to count the relative number of GLT-1 or GLAST positive puncta in the ipsilateral (injured) dorsal horn versus the contralateral (non-injured) dorsal horn. […]
As described previously with rats, mice were transcardially perfused with 0.1 M PBS (phosphate-buffered saline), pH 7.4, followed by 4%-paraformaldehyde in PBS on day 12 post-L5 spinal nerve transection. […] The sections were examined with a fluorescence microscope, and images were captured with a Q-Fire cooled camera. […]

[2] = test system: MIP-2 (CXCL2); experiment: ELISA of MIP-2 release from cultured astrocytes; assay type: cell-based, rat; conditions: seven days, LPS 1 μg/ml; propentofylline 1000 μM; db-cAMP 250 μM
Experimental: After approximately 14 days (2 days after subplating into plates, DIV 14) astrocytes had formed a confluent monolayer. […] Phase contrast microscopy was then carried out in order to assess the morphology of cells after the various treatments. Length of astrocyte processes was quantified by measuring all processes in 2-3 phase contrast images/group by an independent observer, blinded to the treatment groups using Image J v1.34s (National Institutes of Health, Bethesda, Md.).
Standard ELISA was performed for quantitative determination of MCP-1 and MIP-2 protein in cell culture supernatant. Assays were carried out according to the manufacturer's specifications (Biosource, Camarillo, Calif.) using the sandwich enzyme immunoassay procedure. Optical density at 450 nm was obtained using the MRX Revelations program (Dynex Technologies, Chantilly, Va.) and relative protein concentrations were determined by comparing samples to the standard curve generated.

CCCn1cnc2c1c(=O)n(CCCCC(C)=O)c(=O)n2C [propentofylline]
DsRed-GLAST-positive puncta in injured mice ([1]; L5/propentofylline vs L5/saline group, day 12): significantly enhanced the number of DsRed-GLAST-positive puncta; also recorded: increased the levels back to that seen in the contralateral side
DsRed-GLAST expression in sham mice ([1]; sham/propentofylline group): unaffected
LPS-induced MIP-2 (CXCL2) release [2]: reversed by co-treatment with propentofylline; also recorded: significantly attenuated
